Measurements as given in PubChem BioAssay (NCI).
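96-well plates; 48 h exposure; 5 concentrations. Endpoints by linear interpolation between flanking doses. Not reached: highest tested concentration assigned. The concentration for full growth arrest is given as TGI.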

How the values were obtained:
Assay in all cases: growth of human tumour cells (NCI), 48 h
[1] = system: 786-0 renal
[2] = system: A498 renal
[3] = system: A549 NSCLC
[4] = system: ACHN renal
[5] = system: BT-549 breast
[6] = system: CAKI-1 renal
[7] = system: CCRF-CEM leukemia
[8] = system: COLO 205 colon
[9] = system: DLD-1 colon
[10] = system: DMS 114 small cell lung
[11] = system: DU-145 prostate
[12] = system: EKVX NSCLC
[13] = system: HCC-2998 colon
[14] = system: HCT-116 colon
[15] = system: HCT-15 colon
[16] = system: HL-60(TB) leukemia
[17] = system: HOP-18 NSCLC
[18] = system: HOP-62 NSCLC
[19] = system: HOP-92 NSCLC
[20] = system: HS 578T breast
[21] = system: HT29 colon
[22] = system: IGROV1 ovarian
[23] = system: K-562 leukemia
[24] = system: KM12 colon
[25] = system: KM20L2 colon
[26] = system: LOX IMVI melanoma
[27] = system: LXFL 529 NSCLC
[28] = system: M14 melanoma
[29] = system: M19-MEL melanoma
[30] = system: MALME-3M melanoma
[31] = system: MCF7 breast
[32] = system: MDA-MB-231 breast
[33] = system: MDA-MB-435
[34] = system: MDA-N
[35] = system: MOLT-4 leukemia
[36] = system: NCI-H226 lung
[37] = system: NCI-H23 lung
[38] = system: NCI-H460 lung
[39] = system: NCI-H522 lung
[40] = system: NCI/ADR-RES ovarian
[41] = system: OVCAR-3 ovarian
[42] = system: OVCAR-4 ovarian
[43] = system: OVCAR-5 ovarian
[44] = system: OVCAR-8 ovarian
[45] = system: PC-3 prostate
[46] = system: RPMI-8226 leukemia
[47] = system: RXF 393 renal
[48] = system: RXF-631 renal
[49] = system: SF-268 CNS
[50] = system: SF-295 CNS
[51] = system: SF-539 CNS
[52] = system: SK-MEL-2 melanoma
[53] = system: SK-MEL-28 melanoma
[54] = system: SK-MEL-5 melanoma
[55] = system: SK-OV-3 ovarian
[56] = system: SN12C renal
[57] = system: SNB-19 CNS
[58] = system: SNB-75 CNS
[59] = system: SNB-78 CNS
[60] = system: SR leukemia
[61] = system: SW-620 colon
[62] = system: T-47D breast
[63] = system: TK-10 renal
[64] = system: U251 CNS
[65] = system: UACC-257 melanoma
[66] = system: UACC-62 melanoma
[67] = system: UO-31 renal
[68] = system: XF 498 CNS

Question: What does the source list for `COc1ccc2c(c1)[n+]([O-])c(/C(C)=N/NC(N)=S)c(C)[n+]2[O-]`?
Answer: TGI [1]: > 100 µM; TGI [2]: > 100 µM; TGI [3]: > 100 µM; TGI [4]: > 100 µM; TGI [5]: > 100 µM; TGI [6]: > 100 µM; TGI [7]: > 100 µM; TGI [8]: > 100 µM; TGI [9]: > 100 µM; TGI [10]: > 100 µM; TGI [11]: > 100 µM; TGI [12]: > 100 µM; TGI [13]: > 66.7 µM; TGI [14]: > 93.2 µM; TGI [15]: > 100 µM; TGI [16]: > 100 µM; TGI [17]: > 100 µM; TGI [18]: > 100 µM; TGI [19]: > 100 µM; TGI [20]: > 100 µM; TGI [21]: > 100 µM; TGI [22]: > 100 µM; TGI [23]: > 100 µM; TGI [24]: > 100 µM; TGI [25]: > 100 µM; TGI [26]: > 100 µM; TGI [27]: > 100 µM; TGI [28]: > 100 µM; TGI [29]: > 100 µM; TGI [30]: > 100 µM; TGI [31]: > 100 µM; TGI [32]: > 100 µM; TGI [33]: > 100 µM; TGI [34]: > 100 µM; TGI [35]: > 83.8 µM; TGI [36]: > 100 µM; TGI [37]: > 100 µM; TGI [38]: > 71.4 µM; TGI [39]: > 100 µM; TGI [40]: 96.5 µM; TGI [41]: > 95.7 µM; TGI [42]: > 100 µM; TGI [43]: > 100 µM; TGI [44]: > 100 µM; TGI [45]: > 100 µM; TGI [46]: > 100 µM; TGI [47]: > 100 µM; TGI [48]: > 100 µM; TGI [49]: > 100 µM; TGI [50]: > 100 µM; TGI [51]: 97.9 µM; TGI [52]: > 100 µM; TGI [53]: > 100 µM; TGI [54]: > 69.1 µM; TGI [55]: > 100 µM; TGI [56]: > 100 µM; TGI [57]: > 100 µM; TGI [58]: > 100 µM; TGI [59]: > 100 µM; TGI [60]: 61.5 µM; TGI [61]: > 100 µM; TGI [62]: > 100 µM; TGI [63]: > 100 µM; TGI [64]: > 100 µM; TGI [65]: > 100 µM; TGI [66]: > 100 µM; TGI [67]: > 100 µM; TGI [68]: > 100 µM
